Data: patent US9045445B2, “Glycine transporter-1 inhibitors, methods of making them, and uses thereof” (Albany Molecular Research, Inc., priority 2010, dated 2015)
Structures can show the parent of a compound that is named as a salt.

target: T1, glycine transporter-1 (GlyT-1) (Homo sapiens, UniProt P48067); assay: [14C]glycine uptake assay in JAR cells endogenously expressing GlyT-1 (scintillation proximity); format: cell-based; settings: JAR cells, [14C]glycine 5 μM, 3 hour incubation; read-out: GlyT-1 IC50
T1 construct: JAR cells (ATCC#HTB-144), which endogenously express GlyT-1; host or cells: JAR human choriocarcinoma cells
T1 sequence (P48067 1-706): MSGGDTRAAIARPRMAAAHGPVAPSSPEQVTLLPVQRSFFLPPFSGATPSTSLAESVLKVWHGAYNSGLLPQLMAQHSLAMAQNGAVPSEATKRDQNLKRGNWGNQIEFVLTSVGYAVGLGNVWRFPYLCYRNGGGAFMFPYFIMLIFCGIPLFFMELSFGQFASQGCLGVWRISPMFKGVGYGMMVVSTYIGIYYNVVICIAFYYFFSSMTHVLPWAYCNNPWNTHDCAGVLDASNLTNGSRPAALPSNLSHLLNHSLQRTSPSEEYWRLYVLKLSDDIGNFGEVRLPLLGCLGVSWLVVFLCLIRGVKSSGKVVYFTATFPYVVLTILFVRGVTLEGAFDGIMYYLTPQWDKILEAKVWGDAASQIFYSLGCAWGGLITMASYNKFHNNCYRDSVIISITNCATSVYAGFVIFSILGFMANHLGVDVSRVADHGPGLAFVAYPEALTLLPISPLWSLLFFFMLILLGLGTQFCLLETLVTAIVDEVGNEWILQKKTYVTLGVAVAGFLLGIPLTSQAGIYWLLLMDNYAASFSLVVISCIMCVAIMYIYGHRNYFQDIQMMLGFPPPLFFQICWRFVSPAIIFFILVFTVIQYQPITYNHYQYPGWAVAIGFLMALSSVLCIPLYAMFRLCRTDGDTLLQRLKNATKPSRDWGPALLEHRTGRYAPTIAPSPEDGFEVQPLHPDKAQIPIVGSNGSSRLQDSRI
Protocol: The inhibitory activity of compounds of the invention against the glycine transporter-1 (GlyT-1) can be determined by the following scintillation proximity assay. The potency of each compound was assessed in inhibiting the uptake of radiolabeled glycine ([^14C]glycine) using the human choriocarcinoma cell line, JAR cells (ATCC#HTB-144), which endogenously express GlyT-1. In brief, 50,000 JARS cells were plated per well of tissue culture treated 96-well Cytostar-T plate (PerkinElmer) in RPMI media supplemented with 10% heat inactivated FBS and allowed to attach overnight at 37° C. and 5% CO2. Compounds were serially diluted 3-fold in DMSO generating a nine (9) data point response curve for each compound. Two replicates were performed per determination. The compounds were then diluted into Uptake Buffer (10 mM Hepes, 120 mM NaCl, 2 mM KCl, 1 mM CaCl2 and 1 mM MgCl2, 5 mM Alanine, pH 7.4) with a final DMSO concentration of 0.75% (v/v). Following the overnight incubation, the media was replaced with Uptake Buffer in the presence or absence of diluted compound and pre-incubated at room temperature for 10 minutes prior to the addition of [^14C]glycine at a final concentration of 5 μM. Following a 3 hour incubation period at 37° C. and 5% CO2, the plates were sealed and placed at room temperature in the dark for 15 minutes prior to quantification of incorporated radioactivity using a MicroBeta Trilux scintillation plate reader (PerkinElmer). Data were fit into a four-parameter model to determine the inhibitor concentration at half-maximal response (IC50). The assay window was established by control wells incubated with [^14C]glycine in the presence or absence of 10 mM non-labeled glycine. A dose response curve for a synthesized reference standard was generated on every plate as a positive control.

Row | IC50 [nM] | SMILES
1 | 30 | CCCS(=O)(=O)N1CCN(C2(CNC(=O)c3ccc(F)cc3C(F)(F)F)CCC(F)(F)CC2)CC1 [compound 148, N-((4,4-Difluoro-1-(4-(propylsulfonyl)piperazin-1-yl)cyclohexyl)methyl)-4-fluoro-2-(trifluoromethyl)benzamide Hydrochloride]
2 | 69 | CCCS(=O)(=O)N1CCN(C2(CNC(=O)c3c(F)cccc3C(F)(F)F)CCC(F)(F)CC2)CC1 [compound 149, N-((4,4-Difluoro-1-(4-(propylsulfonyl)piperazin-1-yl)cyclohexyl)methyl)-2-fluoro-6-(trifluoromethyl)benzamide Hydrochloride]
3 | 61 | CCCS(=O)(=O)N1CCN(C2(CNC(=O)c3ccc(C(F)(F)F)cc3F)CCC(F)(F)CC2)CC1 [compound 150, N-((4,4-Difluoro-1-(4-(propylsulfonyl)piperazin-1-yl)cyclohexyl)methyl)-2-fluoro-4-(trifluoromethyl)benzamide Hydrochloride]
4 | 34 | CCCS(=O)(=O)N1CCN(C2(CNC(=O)c3c(Cl)cccc3OC)CCC(F)(F)CC2)CC1 [compound 152, 2-Chloro-N-((4,4-difluoro-1-(4-(propylsulfonyl)piperazin-1-yl)cyclohexyl)methyl)-6-methoxybenzamide Hydrochloride]
5 | 69 | CCCS(=O)(=O)N1CCN(C2(CNC(=O)c3ccc(Cl)cc3C)CCC(F)(F)CC2)CC1 [compound 153, 4-Chloro-N-((4,4-difluoro-1-(4-(propylsulfonyl)piperazin-1-yl)cyclohexyl)methyl)-2-methylbenzamide Hydrochloride]
6 | 38 | CCCS(=O)(=O)N1CCN(C2(CNC(=O)c3ccc(F)cc3Cl)CCC(F)(F)CC2)CC1 [compound 154, 2-Chloro-N-((4,4-difluoro-1-(4-(propylsulfonyl)piperazin-1-yl)cyclohexyl)methyl)-4-fluorobenzamide Hydrochloride]
7 | 26 | CCCS(=O)(=O)N1CCN(C2(CNC(=O)c3c(C)cccc3Cl)CCC(F)(F)CC2)CC1 [compound 155, 2-Chloro-N-((4,4-difluoro-1-(4-(propylsulfonyl)piperazin-1-yl)cyclohexyl)methyl)-6-methylbenzamide Hydrochloride]
8 | 43 | CCCS(=O)(=O)N1CCN(C2(CNC(=O)c3c(F)cccc3Cl)CCC(F)(F)CC2)CC1 [compound 156, 2-Chloro-N-((4,4-difluoro-1-(4-(propylsulfonyl)piperazin-1-yl)cyclohexyl)methyl)-6-fluorobenzamide Hydrochloride]
9 | 59 | CCCS(=O)(=O)N1CCN(C2(CNC(=O)c3c(Cl)cccc3C(F)(F)F)CCC(F)(F)CC2)CC1 [compound 157, 2-Chloro-N-((4,4-difluoro-1-(4-(propylsulfonyl)piperazin-1-yl)cyclohexyl)methyl)-6-(trifluoromethyl)benz-amide Hydrochloride]
10 | 35 | CCCS(=O)(=O)N1CCN(C2(CNC(=O)c3c(F)cccc3OC(F)(F)F)CCC(F)(F)CC2)CC1 [compound 158, N-((4,4-Difluoro-1-(4-(propylsulfonyl)piperazin-1-yl)cyclohexyl)methyl)-2-fluoro-6-(trifluoro-methoxy)benzamide Hydrochloride]
11 | 29 | CCCS(=O)(=O)N1CCN(C2(CNC(=O)c3c(Cl)cccc3OC(F)(F)F)CCC(F)(F)CC2)CC1 [compound 159, 2-Chloro-N-((4,4-difluoro-1-(4-(propylsulfonyl)piperazin-1-yl)cyclohexyl)methyl)-6-(trifluoromethoxy) benzamide Hydrochloride]
12 | 4 | Cc1cccc(C)c1C(=O)NCC1(N2CCN(S(=O)(=O)c3cn(C)cn3)CC2)CCC(F)(F)CC1 [compound 164, N-((4,4-Difluoro-1-(4-(1-methyl-1H-imidazol-4-ylsulfonyl)piperazin-1-yl)cyclohexyl)methyl)-2,6-dimethylbenzamide Hydrochloride]
13 | 29 | Cn1cnc(S(=O)(=O)N2CCN(C3(CNC(=O)c4ccc(Cl)cc4F)CCC(F)(F)CC3)CC2)c1 [compound 165, 4-Chloro-N-((4,4-difluoro-1-(4-(1-methyl-1H-imidazol-4-ylsulfonyl)piperazin-1-yl)cyclohexyl)methyl)-2-fluorobenzamide Hydrochloride]
14 | 15 | Cc1cc(Cl)ccc1C(=O)NCC1(N2CCN(S(=O)(=O)c3cn(C)cn3)CC2)CCC(F)(F)CC1 [compound 168, 4-Chloro-N-((4,4-difluoro-1-(4-(1-methyl-1H-imidazol-4-ylsulfonyl)piperazin-1-yl)cyclohexyl)methyl)-2-methylbenzamide Hydrochloride]
15 | 2 | Cn1cnc(S(=O)(=O)N2CCN(C3(CNC(=O)c4ccc(F)cc4C(F)(F)F)CCC(F)(F)CC3)CC2)c1 [compound 169, N-((4,4-Difluoro-1-(4-(1-methyl-1H-imidazol-4-ylsulfonyl)piperazin-1-yl)cyclohexyl)methyl)-4-fluoro-2-(trifluoromethyl)benzamide Hydrochloride]
16 | 14 | Cn1cnc(S(=O)(=O)N2CCN(C3(CNC(=O)c4ccc(C(F)(F)F)cc4F)CCC(F)(F)CC3)CC2)c1 [compound 170, N-((4,4-Difluoro-1-(4-(1-methyl-1H-imidazol-4-ylsulfonyl)piperazin-1-yl)cyclohexyl)methyl)-2-fluoro-4-(trifluoromethyl)benzamide Hydrochloride]
17 | 2 | Cn1cnc(S(=O)(=O)N2CCN(C3(CNC(=O)c4ccc(C(F)(F)F)cc4Cl)CCC(F)(F)CC3)CC2)c1 [compound 171, N-((4,4-Difluoro-1-(4-(1-methyl-1H-imidazol-4-ylsulfonyl)piperazin-1-yl)cyclohexyl)methyl)-2-chloro-4-(trifluoromethyl)benzamide Hydrochloride]
18 | 3 | Cn1cnc(S(=O)(=O)N2CCN(C3(CNC(=O)c4c(F)cccc4C(F)(F)F)CCC(F)(F)CC3)CC2)c1 [compound 172, N-((4,4-Difluoro-1-(4-(1-methyl-1H-imidazol-4-ylsulfonyl)piperazin-1-yl)cyclohexyl)methyl)-2-fluoro-6-(trifluoromethyl)benzamide Hydrochloride]
19 | 2 | COc1cccc(Cl)c1C(=O)NCC1(N2CCN(S(=O)(=O)c3cn(C)cn3)CC2)CCC(F)(F)CC1 [compound 173, 2-Chloro-N-((4,4-Difluoro-1-(4-(1-methyl-1H-imidazol-4-ylsulfonyl)piperazin-1-yl)cyclohexyl)methyl)-6-methoxybenzamide Hydrochloride]
20 | 5 | Cn1cnc(S(=O)(=O)N2CCN(C3(CNC(=O)c4c(Cl)cccc4Cl)CCC(F)(F)CC3)CC2)c1 [compound 174, 2,6-Dichloro-N-((4,4-difluoro-1-(4-(1-methyl-1H-imidazol-4-ylsulfonyl)piperazin-1-yl)cyclohexyl)methyl) benzamide Hydrochloride]
21 | 57 | Cn1cnc(S(=O)(=O)N2CCN(C3(CNC(=O)c4ccccc4F)CCC(F)(F)CC3)CC2)c1 [compound 175, N-((4,4-Difluoro-1-(4-(1-methyl-1H-imidazol-4-ylsulfonyl)piperazin-1-yl)cyclohexyl)methyl)-2-fluorobenzamide Hydrochloride]
22 | 34 | COc1ccccc1C(=O)NCC1(N2CCN(S(=O)(=O)c3cn(C)cn3)CC2)CCC(F)(F)CC1 [compound 177, N-((4,4-Difluoro-1-(4-(1-methyl-1H-imidazol-4-ylsulfonyl)piperazin-1-yl)cyclohexyl)methyl)-2-methoxybenzamide Hydrochloride]
23 | 5 | Cn1cnc(S(=O)(=O)N2CCN(C3(CNC(=O)c4ccc(Cl)cc4Cl)CCC(F)(F)CC3)CC2)c1 [compound 178, 2,4-Dichloro-N-((4,4-difluoro-1-(4-(1-methyl-1H-imidazol-4-ylsulfonyl)piperazin-1-yl)cyclohexyl)methyl) benzamide Hydrochloride]
